{
  "source": "paper PMC6934184",
  "about": "“Selective DNA-PKcs inhibition extends the therapeutic index of localized radiotherapy and chemotherapy” (The Journal of Clinical Investigation, 2019)",
  "target": "T1, TBK1 (Homo sapiens, UniProt Q9UHD2)",
  "T1 construct": "purchased Thermo Fisher Scientific (Life Technologies) SelectScreen",
  "T1 sequence (Q9UHD2 whole entry)": "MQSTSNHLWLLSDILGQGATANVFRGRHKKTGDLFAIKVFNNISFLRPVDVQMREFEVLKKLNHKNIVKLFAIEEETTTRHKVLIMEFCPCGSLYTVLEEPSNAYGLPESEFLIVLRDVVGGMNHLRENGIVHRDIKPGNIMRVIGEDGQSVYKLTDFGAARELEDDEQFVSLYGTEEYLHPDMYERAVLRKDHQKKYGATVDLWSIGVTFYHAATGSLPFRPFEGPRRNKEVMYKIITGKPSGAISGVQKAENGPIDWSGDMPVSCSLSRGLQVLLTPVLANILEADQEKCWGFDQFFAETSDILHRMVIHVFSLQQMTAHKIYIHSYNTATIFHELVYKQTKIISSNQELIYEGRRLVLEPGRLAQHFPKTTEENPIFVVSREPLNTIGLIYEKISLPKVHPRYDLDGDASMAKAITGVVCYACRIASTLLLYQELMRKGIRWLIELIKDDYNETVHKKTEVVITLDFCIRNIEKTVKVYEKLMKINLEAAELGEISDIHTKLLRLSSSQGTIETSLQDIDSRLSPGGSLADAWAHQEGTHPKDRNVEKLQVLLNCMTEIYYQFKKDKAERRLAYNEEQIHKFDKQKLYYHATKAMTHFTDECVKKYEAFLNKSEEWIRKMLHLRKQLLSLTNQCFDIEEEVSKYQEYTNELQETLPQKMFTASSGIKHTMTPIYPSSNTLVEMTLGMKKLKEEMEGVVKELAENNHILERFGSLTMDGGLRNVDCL",
  "test": "SelectScreen Z'LYTE",
  "format": "biochemical",
  "summary_of_the_method": "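NU5455 was profiled across the SelectScreen Broad panel of kinase activity and binding assays. Z'LYTE reactions such as CSF1R ran at apparent Km ATP, while the Adapta CAMK1 assay used ATP listed as 10. Values are given as percent.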",
  "data": [
    {"smiles": "CN(C(=O)CN1CCOCC1)c1ccc2sc3c(-c4cccc5c(=O)cc(N6CC7CCC(C6)O7)oc45)cccc3c2c1", "note": "[NU5455]", "values": [
      {"measurement": "inhibition at 1 µM", "value": 2, "unit": "%"}
    ]}
  ]
}
